From PMC5218480 (PLoS ONE, 2017)

System: MV-4-11 cells
Test: Gene expression microarray analysis (Affymetrix PrimeView) and GSEA
Assay type: cell-based, human
Set-up: RFU PODN (11730768_x_at) / Fold change /veh PODN (11730768_x_at) / RFU LINC00158 (11744669_a_at) / Fold change /veh LINC00158 (11744669_a_at) / RFU DUSP10 (11751237_a_at) / Fold change /veh DUSP10 (11751237_a_at) / RFU ID3 (11757404_x_at) / Fold change /veh ID3 (11757404_x_at) / RFU PLEKHG5 (11737974_s_at) / Fold change /veh PLEKHG5 (11737974_s_at) / RFU LRRC4B (11730491_at) / Fold change /veh LRRC4B (11730491_at) / RFU GIMAP4 (11747438_a_at) / Fold change /veh GIMAP4 (11747438_a_at) / RFU KRT8 (11758183_x_at) / Fold change /veh KRT8 (11758183_x_at) / RFU CNN1 (11734310_a_at) / Fold change /veh CNN1 (11734310_a_at) / RFU VPS37D (11726825_at) / Fold change /veh VPS37D (11726825_at) / RFU C10orf10 (11716522_x_at) / Fold change /veh C10orf10 (11716522_x_at) / RFU KIR2DL2 /// KIR2DL4 /// KIR2DL5A /// KIR2DL5B /// KIR2DS1 /// KIR2DS2 /// KIR2DS3 /// KIR2DS4 /// KIR3DL3 /// KIR3DL3 /// KIR3DS1 (11738374_at) / Fold change /veh KIR2DL2 /// KIR2DL4 /// KIR2DL5A /// KIR2DL5B /// KIR2DS1 /// KIR2DS2 /// KIR2DS3 /// KIR2DS4 /// KIR3DL3 /// KIR3DL3 /// KIR3DS1 (11738374_at) / RFU C1QL1 (11718748_at) / Fold change /veh C1QL1 (11718748_at) / RFU TMPRSS4 (11747572_a_at) / Fold change /veh TMPRSS4 (11747572_a_at) / RFU HAMP (11756126_x_at) / Fold change /veh HAMP (11756126_x_at) / RFU RNFT2 (11725882_a_at) / Fold change /veh RNFT2 (11725882_a_at) / RFU NR4A2 (11747474_a_at) / Fold change /veh NR4A2 (11747474_a_at) / RFU ABCC12 (11746883_a_at) / Fold change /veh ABCC12 (11746883_a_at) / RFU TMEM136 (11760407_x_at) / Fold change /veh TMEM136 (11760407_x_at) / RFU CLDN22 /// WWC2 (11732394_at) / Fold change /veh CLDN22 /// WWC2 (11732394_at) / RFU HLA-DPB1 (11760878_x_at) / Fold change /veh HLA-DPB1 (11760878_x_at) / RFU SPINT1 (11716480_a_at) / Fold change /veh SPINT1 (11716480_a_at) / RFU GAP43 (11754022_s_at) / Fold change /veh GAP43 (11754022_s_at) / RFU A4GNT (11735810_at) / Fold change /veh A4GNT (11735810_at) / RFU PRB3 (11715151_x_at) / Fold change /veh PRB3 (11715151_x_at) / RFU TUBB4B (11761932_at) / Fold change /veh TUBB4B (11761932_at) / RFU CAPN14 (11732068_a_at) / Fold change /veh CAPN14 (11732068_a_at) / RFU TMCC2 (11721928_a_at) / Fold change /veh TMCC2 (11721928_a_at) / RFU IRGQ (11745062_a_at) / Fold change /veh IRGQ (11745062_a_at) / RFU FAM174B (11720279_a_at) / Fold change /veh FAM174B (11720279_a_at) / RFU TMPRSS4 (11748680_a_at) / Fold change /veh TMPRSS4 (11748680_a_at) / RFU FAM212B (11763350_a_at) / Fold change /veh FAM212B (11763350_a_at) / RFU PLEKHG5 (11743358_a_at) / Fold change /veh PLEKHG5 (11743358_a_at) / RFU ZSCAN30 (11745921_a_at) / Fold change /veh ZSCAN30 (11745921_a_at) / RFU CMKLR1 (11741424_a_at) / Fold change /veh CMKLR1 (11741424_a_at) / RFU LOC101060620 /// MAPK8IP1 (11723275_at) / Fold change /veh LOC101060620 /// MAPK8IP1 (11723275_at) / RFU SPTSSB (11747773_x_at) / Fold change /veh SPTSSB (11747773_x_at) / RFU PRSS12 (11739890_at) / Fold change /veh PRSS12 (11739890_at) / RFU BIN1 (11741810_x_at) / Fold change /veh BIN1 (11741810_x_at) / RFU WNT11 (11732464_a_at) / Fold change /veh WNT11 (11732464_a_at) / RFU C10orf10 (11716521_a_at) / Fold change /veh C10orf10 (11716521_a_at) / RFU C5orf56 (11738089_at) / Fold change /veh C5orf56 (11738089_at) / RFU CYB561 (11721691_x_at) / Fold change /veh CYB561 (11721691_x_at) / RFU ANKRD19P (11752326_a_at) / Fold change /veh ANKRD19P (11752326_a_at) / RFU OR2T12 /// OR2T33 /// OR2T8 (11738714_s_at) / Fold change /veh OR2T12 /// OR2T33 /// OR2T8 (11738714_s_at) / RFU VCAN (11748164_a_at) / Fold change /veh VCAN (11748164_a_at) / RFU JSRP1 (11732532_at) / Fold change /veh JSRP1 (11732532_at) / RFU KRTAP10-11 (11738290_x_at) / Fold change /veh KRTAP10-11 (11738290_x_at) / RFU MYO3A (11730013_a_at) / Fold change /veh MYO3A (11730013_a_at) / RFU EBF3 (11725865_a_at) / Fold change /veh EBF3 (11725865_a_at) / RFU CAMK2N1 (11719241_x_at) / Fold change /veh CAMK2N1 (11719241_x_at) / RFU C5orf56 (11738088_a_at) / Fold change /veh C5orf56 (11738088_a_at) / RFU OLFML3 (11715873_a_at) / Fold change /veh OLFML3 (11715873_a_at) / RFU LOC100653217 /// NTM (11731650_a_at) / Fold change /veh LOC100653217 /// NTM (11731650_a_at) / RFU MAPK11 (11762145_a_at) / Fold change /veh MAPK11 (11762145_a_at) / RFU FIZ1 (11724087_x_at) / Fold change /veh FIZ1 (11724087_x_at) / RFU OASL (11726364_x_at) / Fold change /veh OASL (11726364_x_at) / RFU SOX15 (11748057_x_at) / Fold change /veh SOX15 (11748057_x_at) / RFU CD79A (11719716_a_at) / Fold change /veh CD79A (11719716_a_at) / RFU HIST1H1D (11736915_at) / Fold change /veh HIST1H1D (11736915_at) / RFU CASKIN2 (11723855_a_at) / Fold change /veh CASKIN2 (11723855_a_at) / RFU LOC730098 (11760151_x_at) / Fold change /veh LOC730098 (11760151_x_at) / RFU OR4N2 (11742367_at) / Fold change /veh OR4N2 (11742367_at) / RFU PRRT2 (11749266_a_at) / Fold change /veh PRRT2 (11749266_a_at) / RFU SNX32 (11753110_a_at) / Fold change /veh SNX32 (11753110_a_at) / RFU CDHR5 (11726645_a_at) / Fold change /veh CDHR5 (11726645_a_at) / RFU RCAN1 (11760418_a_at) / Fold change /veh RCAN1 (11760418_a_at) / RFU FAM167A (11723789_a_at) / Fold change /veh FAM167A (11723789_a_at) / RFU FAM26E (11764081_at) / Fold change /veh FAM26E (11764081_at) / RFU ISYNA1 (11749810_s_at) / Fold change /veh ISYNA1 (11749810_s_at) / RFU ACY1 (11761880_at) / Fold change /veh ACY1 (11761880_at) / RFU 11764098_at / Fold change /veh 11764098_at / RFU SAMD14 (11745864_x_at) / Fold change /veh SAMD14 (11745864_x_at) / RFU NPB (11741838_a_at) / Fold change /veh NPB (11741838_a_at) / RFU TMPRSS6 (11731388_a_at) / Fold change /veh TMPRSS6 (11731388_a_at) / RFU KRTAP10-2 (11738614_at) / Fold change /veh KRTAP10-2 (11738614_at) / RFU ARHGAP8 /// PRR5-ARHGAP8 (11727945_x_at) / Fold change /veh ARHGAP8 /// PRR5-ARHGAP8 (11727945_x_at) / RFU KRTAP5-7 /// NADSYN1 (11734609_at) / Fold change /veh KRTAP5-7 /// NADSYN1 (11734609_at) / RFU RASL12 (11751679_a_at) / Fold change /veh RASL12 (11751679_a_at) / RFU CDKN2B (11736163_a_at) / Fold change /veh CDKN2B (11736163_a_at) / RFU PRF1 (11729649_at) / Fold change /veh PRF1 (11729649_at) / RFU, ZNF638 /// ZNF638-IT1 / Fold change vs veh, ZNF638 /// ZNF638-IT1 / RFU, PANK3 / Fold change vs veh, PANK3 / RFU, SH3YL1 / Fold change vs veh, SH3YL1 / RFU, ZEB2 / Fold change vs veh, ZEB2 / RFU, NRIP1 / Fold change vs veh, NRIP1 / RFU, PTTG1IP / Fold change vs veh, PTTG1IP / RFU, CAPN2 / Fold change vs veh, CAPN2 / RFU, MED14 / Fold change vs veh, MED14 / RFU, SNORA58 / Fold change vs veh, SNORA58 / RFU, C1orf63 / Fold change vs veh, C1orf63 / RFU, LRRFIP1 / Fold change vs veh, LRRFIP1 / RFU, NDUFAF7 / Fold change vs veh, NDUFAF7 / RFU, SLC12A2 / Fold change vs veh, SLC12A2 / RFU, IBTK / Fold change vs veh, IBTK / RFU, ESF1 / Fold change vs veh, ESF1 / Fold change vs veh, TMEM50B / RFU, TAOK1 / Fold change vs veh, TAOK1 / RFU, ACBD3 / Fold change vs veh, ACBD3 / RFU, TMA16 / Fold change vs veh, TMA16 / RFU, RWDD3 / Fold change vs veh, RWDD3 / RFU, BCAT1 / Fold change vs veh, BCAT1 / RFU, EDEM3 / Fold change vs veh, EDEM3 / RFU, TMEM33 / Fold change vs veh, TMEM33 / RFU, WDR75 / Fold change vs veh, WDR75 / RFU, AHCTF1 / Fold change vs veh, AHCTF1 / RFU, TFRC / Fold change vs veh, TFRC / RFU, ZDHHC17 / Fold change vs veh, ZDHHC17 / RFU, NOM1 / Fold change vs veh, NOM1 / RFU, ARL8B / Fold change vs veh, ARL8B / RFU, ZBTB11 / Fold change vs veh, ZBTB11 / RFU, TAMM41 / Fold change vs veh, TAMM41 / RFU, KIAA1704 /// LOC100996395 / Fold change vs veh, KIAA1704 /// LOC100996395 / RFU, ING1 / Fold change vs veh, ING1 / RFU, TRMT61B / Fold change vs veh, TRMT61B / RFU, FUBP3 / Fold change vs veh, FUBP3 / RFU, TP53 / Fold change vs veh, TP53 / RFU, TNKS2 / Fold change vs veh, TNKS2 / RFU, ZFP14 / Fold change vs veh, ZFP14 / RFU, ACTR2 / Fold change vs veh, ACTR2 / RFU, PPP3R1 / Fold change vs veh, PPP3R1 / RFU, PIK3R1 / Fold change vs veh, PIK3R1 / RFU, HNRNPA1 / Fold change vs veh, HNRNPA1 / RFU, RNF170 / Fold change vs veh, RNF170 / RFU, ZNF28 / Fold change vs veh, ZNF28 / RFU, RNGTT / Fold change vs veh, RNGTT / RFU, OGT / Fold change vs veh, OGT / RFU, BRD1 / Fold change vs veh, BRD1 / RFU, MARS / Fold change vs veh, MARS / RFU, ZNF655 / Fold change vs veh, ZNF655 / RFU, FAHD1 / Fold change vs veh, FAHD1 / RFU, BDP1 / Fold change vs veh, BDP1 / RFU, LRRCC1 / Fold change vs veh, LRRCC1 / RFU, ARID1A / Fold change vs veh, ARID1A / RFU, ZNF146 / Fold change vs veh, ZNF146 / RFU, ZNF330 / Fold change vs veh, ZNF330 / RFU, GPN3 / Fold change vs veh, GPN3 / RFU, C9orf123 / Fold change vs veh, C9orf123 / RFU, N4BP2L2 / Fold change vs veh, N4BP2L2 / RFU, ARFIP1 / Fold change vs veh, ARFIP1 / RFU, FAM179B / Fold change vs veh, FAM179B / RFU, BCL10 / Fold change vs veh, BCL10 / RFU, UHRF1BP1L / Fold change vs veh, UHRF1BP1L / RFU, BET1 / Fold change vs veh, BET1 / RFU, CNOT2 / Fold change vs veh, CNOT2 / RFU, ZNF268 / Fold change vs veh, ZNF268 / Fold change vs veh, ZNF507 / RFU, DGCR2 / Fold change vs veh, DGCR2 / RFU, WDSUB1 / Fold change vs veh, WDSUB1 / Fold change vs veh, HSP90B1 /// MIR3652 / RFU, ADSS / Fold change vs veh, ADSS / RFU, GK / Fold change vs veh, GK / RFU, ZNF148 / Fold change vs veh, ZNF148 / RFU, TAF9 / Fold change vs veh, TAF9 / RFU, SLC1A5 / Fold change vs veh, SLC1A5 / RFU, SLMO2 / Fold change vs veh, SLMO2 / RFU, ABCC4 / Fold change vs veh, ABCC4 / RFU, LOC101060439 /// RAP1B / Fold change vs veh, LOC101060439 /// RAP1B / RFU, RFX7 / Fold change vs veh, RFX7 / RFU, GTPBP10 / Fold change vs veh, GTPBP10 / RFU, CNEP1R1 / Fold change vs veh, CNEP1R1 / RFU, BIVM-ERCC5 /// ERCC5 / Fold change vs veh, BIVM-ERCC5 /// ERCC5 / RFU, ILF3 / Fold change vs veh, ILF3 / RFU 11762660_at / Fold change /veh 11762660_at / RFU VCAN (11757783_s_at) / Fold change /veh VCAN (11757783_s_at) / RFU DDX43 (11728927_at) / Fold change /veh DDX43 (11728927_at) / RFU KRT8 (11758188_x_at) / Fold change /veh KRT8 (11758188_x_at) / RFU NKD1 (11759106_at) / Fold change /veh NKD1 (11759106_at) / RFU SRD5A1 (11742802_a_at) / Fold change /veh SRD5A1 (11742802_a_at) / RFU TPSAB1 /// TPSB2 (11721975_s_at) / Fold change /veh TPSAB1 /// TPSB2 (11721975_s_at) / RFU GSTM3 (11746129_a_at) / Fold change /veh GSTM3 (11746129_a_at) / RFU IL23R (11737362_x_at) / Fold change /veh IL23R (11737362_x_at) / RFU TMEM51 (11727254_a_at) / Fold change /veh TMEM51 (11727254_a_at) / RFU PIWIL2 (11732686_x_at) / Fold change /veh PIWIL2 (11732686_x_at) / RFU ORM1 (11744905_x_at) / Fold change /veh ORM1 (11744905_x_at) / RFU CCDC152 (11743942_at) / Fold change /veh CCDC152 (11743942_at) / RFU ECM1 (11717891_a_at) / Fold change /veh ECM1 (11717891_a_at) / RFU IL23R (11748794_a_at) / Fold change /veh IL23R (11748794_a_at) / RFU TNFAIP8L3 (11732012_x_at) / Fold change /veh TNFAIP8L3 (11732012_x_at) / RFU MBOAT4 (11741988_at) / Fold change /veh MBOAT4 (11741988_at) / RFU 11764193_at / Fold change /veh 11764193_at / RFU TMEM53 (11763286_at) / Fold change /veh TMEM53 (11763286_at) / RFU MAGEB2 (11727129_at) / Fold change /veh MAGEB2 (11727129_at) / RFU TMEM200A (11744735_a_at) / Fold change /veh TMEM200A (11744735_a_at) / RFU CCDC152 (11751479_a_at) / Fold change /veh CCDC152 (11751479_a_at) / RFU FAM211A (11726209_a_at) / Fold change /veh FAM211A (11726209_a_at) / RFU RGS16 (11746705_a_at) / Fold change /veh RGS16 (11746705_a_at) / RFU VCAN (11755009_s_at) / Fold change /veh VCAN (11755009_s_at) / RFU RHOB (11743442_s_at) / Fold change /veh RHOB (11743442_s_at) / RFU RGS16 (11720943_a_at) / Fold change /veh RGS16 (11720943_a_at) / RFU RGS16 (11720944_at) / Fold change /veh RGS16 (11720944_at) / RFU, VPS4B / Fold change vs veh, VPS4B / RFU, CREB1 / Fold change vs veh, CREB1 / RFU, DNAJC13 / Fold change vs veh, DNAJC13 / RFU, GNAQ / Fold change vs veh, GNAQ / RFU, CDK5R1 / Fold change vs veh, CDK5R1 / RFU, ZRANB3 / Fold change vs veh, ZRANB3 / RFU, CUL4A / Fold change vs veh, CUL4A / RFU, CCNY / Fold change vs veh, CCNY / RFU, UFL1 / Fold change vs veh, UFL1 / RFU, COG3 / Fold change vs veh, COG3 / RFU, DIAPH2 / Fold change vs veh, DIAPH2 / RFU, SKA2 / Fold change vs veh, SKA2 / RFU, AFF3 / Fold change vs veh, AFF3 / RFU, LMF1 / Fold change vs veh, LMF1 / RFU, IPO11 / Fold change vs veh, IPO11 / RFU, DFFB / Fold change vs veh, DFFB / RFU, FOXP1 / Fold change vs veh, FOXP1 / RFU, CARD8 / Fold change vs veh, CARD8 / RFU, STRN3 / Fold change vs veh, STRN3 / RFU, ADK / Fold change vs veh, ADK / RFU, RASSF2 / Fold change vs veh, RASSF2 / RFU, WIPF1 / Fold change vs veh, WIPF1 / RFU, LARP1B / Fold change vs veh, LARP1B / RFU, RASA1 / Fold change vs veh, RASA1 / RFU, RB1 / Fold change vs veh, RB1 / RFU, PPFIA1 / Fold change vs veh, PPFIA1 / RFU, MAT2A / Fold change vs veh, MAT2A / RFU, CCT5 / Fold change vs veh, CCT5 / RFU, WDR92 / Fold change vs veh, WDR92 / RFU, CUX1 / Fold change vs veh, CUX1 / RFU, TTC7A / Fold change vs veh, TTC7A / RFU, TMEM135 / Fold change vs veh, TMEM135 / RFU, DEPTOR / Fold change vs veh, DEPTOR / RFU, CPM / Fold change vs veh, CPM / RFU, DNAJB6 / Fold change vs veh, DNAJB6 / RFU, CACNA2D3 / Fold change vs veh, CACNA2D3 / RFU, DTX4 / Fold change vs veh, DTX4 / RFU, TFCP2 / Fold change vs veh, TFCP2 / RFU, GMCL1 /// GMCL1P1 / Fold change vs veh, GMCL1 /// GMCL1P1 / RFU, AEBP2 / Fold change vs veh, AEBP2 / RFU, SNHG1 /// SNORD22 /// SNORD25 /// SNORD26 /// SNORD27 /// SNORD28 /// SNORD29 /// SNORD31 / Fold change vs veh, SNHG1 /// SNORD22 /// SNORD25 /// SNORD26 /// SNORD27 /// SNORD28 /// SNORD29 /// SNORD31 / Fold change (Aza/veh), C12orf56 (ProbeSet 11735607_a_at) / Fold change (ACY-1035/veh), C12orf56 (ProbeSet 11735607_a_at) / Fold change (Aza/veh), FGFR1OP (ProbeSet 11751329_s_at) / Fold change (ACY-1035/veh), FGFR1OP (ProbeSet 11751329_s_at) / Fold change (Aza/veh), VPS36 (ProbeSet 11739960_a_at) / Fold change (ACY-1035/veh), VPS36 (ProbeSet 11739960_a_at) / RFU SYPL1 (11715823_x_at) / Fold change /veh SYPL1 (11715823_x_at) / RFU IGFBP7 (11715501_s_at) / Fold change /veh IGFBP7 (11715501_s_at) / RFU REEP3 (11722064_at) / Fold change /veh REEP3 (11722064_at) / RFU IGLL1 (11728026_x_at) / Fold change /veh IGLL1 (11728026_x_at): dose or concentration left out as unconfirmed
Conditions: ProbeSet 11743362_s_at; LIST B

Nc1ncn([C@@H]2O[C@H](CO)[C@@H](O)[C@H]2O)c(=O)n1 [azacitidine]
Fold change vs veh, ADSS: 0.89
